Literature values, collected in patent US20220346434A1, “ORAL COMPOSITIONS AND METHODS OF MANUFACTURE” (NICOVENTURES TRADING LIMITED, priority 2021, published 2022).

Legend:
[1] = for solubility in water / aqueous environment: water or aqueous environment (e.g., saliva)
[2] = converts via isomerization into trans-bixin (β-bixin)

Row | Compound | solubility in water / aqueous environment [1] | solubility in fats and alcohols ([1]; fats and alcohols) | chemical stability when isolated [2]
1 | CC(/C=C/C=C(C)/C=C/C(=O)O)=C\C=C\C=C(C)\C=C\C=C(C)\C=C\C(=O)O (stereo in doubt) [norbixin, (2E,4E,6E,8E,10E,12E,14E,16E,18E)-4,8,13,17-tetramethylicosa-2,4,6,8,10,12,14,16,18-nonaenedioic acid] | water soluble | – | –
2 | C=C(C)[C@@H]1CCC(C)=C[C@H]1c1c(O)cc(CCCCC)cc1O [CBD, cannabidiol, reference compound] | insoluble in an aqueous environment | – | –
3 | COC(=O)/C=C/C(C)=C\C=C\C(C)=C\C=C\C=C(C)\C=C\C=C(C)\C=C\C(=O)O [bixin] | insoluble in water | soluble in fats and alcohols | chemically unstable when isolated
